Test: lipid maldigestion or malabsorption animal model (Orlistat): EPA incorporation in red blood cell lipids
Format: in vivo, rats
Experimental: The inventors tested their concept in a lipid maldigestion/malabsorption animal model. The malabsorption condition was obtained using Orlistat®, a well known pancreatic and gastric lipases inhibitor. Animals were fed with long-chain polyunsaturated fatty acid (LC-PUFA) supplements containing mainly eicosapentaenoic (EPA) acid. Fish oil was used as a source of triacylglycerols and different EPA glycerides, for example those of FIG. 1, were evaluated. At different time intervals the fatty acid profile of red blood cell and plasma lipids was assessed. At the end of the experiment, fatty acid profiles of different tissues were determined. […] However, if LC-PUFA are provided as sn-1(3) MAGs the incorporation in tissue is not altered in conditions of lipid malabsorption/maldigestion.
Treatments: Control rats fed fish oil with or without Orlistat and rats fed with MAGs described in FIG. 1. Values are means±SEM (n=6).
The concept was tested in a lipid maldigestion or malabsorption animal model. The maldigestion or malabsorption condition was obtained using Orlistat, a well known pancreatic and gastric lipases inhibitor. Animals were fed during 21 days with long-chain polyunsaturated fatty acid (LC-PUFAs) supplements containing mainly eicosapentaenoic (EPA) acid. Fish oil was used as a source of triacylglycerols and the different EPA glycerides provided in FIG. 1 and purchased from Cognis GmbH, Germany, were evaluated. Orlistat was given at a level sufficient to decrease lipid absorption by 40%. A group receiving fish oil without Orlistat was used as a positive control. At different time intervals (D-3, D7, D14 and D21), fatty acid profile of red blood cell and plasma lipids were performed. At the end of the experiment, fatty acid profiles of different tissues were determined.
The main objective was to follow the level of EPA in red blood cell and plasma lipids. The main comparison evaluated was the difference in EPA level between groups receiving EPA containing MAGs (FIG. 1) in combination with Orlistat and the positive control group […].

SMILES	effect on EPA incorporation in red blood cells (group receiving fish oil in combination or not with Orlistat, validates the model)	level of EPA incorporated in red blood cells, compared with the fish oil group (without Orlistat) (rats fed MAGs in combination with Orlistat, day 7, FIG. 2)	level of EPA incorporated in red blood cells, compared with the fish oil+Orlistat group (rats fed MAGs in combination with Orlistat, day 7, all P values lower than 0.05, FIG. 2)	fatty acid absorption compared with fish oil under normal conditions (under maldigestion/malabsorption conditions, FIG. 2)
CCCCCCCCCCC[C@@H](C[C@@H]1OC(=O)[C@H]1CCCCCC)OC(=O)[C@H](CC(C)C)NC=O [Orlistat, reference compound]	decrease EPA incorporation in red blood cells			
CC/C=C\C/C=C\C/C=C\C/C=C\C/C=C\CCCC(=O)OCC(O)CO (stereo not shown) [sn-1(3) monoeicosapentaenoylglycerol, sn-1(3)-monoeicosapentaenoylglycerol]		even higher than the fish oil group	statistically higher	better absorbed
